Results: ChEMBL document CHEMBL5120837, “Synthesis and biological evaluation of conformationally restricted GluN2B ligands derived from eliprodil” (Eur J Med Chem, 2022)
pKi: −log10 of the molar value.

Columns and labels:
[1] = tested on: Oocyte; assay: Antagonist activity at GluN1a/GluN2B NMDA receptor (unknown origin) expressed in Xenopus oocytes assessed as inhibition of glycine and (S)-glutamate-induced ion channel activation at 1 uM at -70 mV holding potential by two-electrode voltage clamp method relative to control; type: cell-based; details: Homo sapiens
[2] = Displacement of [3H]ifenprodil from recombinant human GluN1A/GluN2B expressed in mouse L-M(TK-) cell membranes after 120 mins by microbeta scintillation counting method; design: species or system Membrane
[3] = molecular target: T1, Sigma intracellular receptor 2 (Rattus norvegicus, UniProt Q5U3Y7); assay: Displacement of [3H]-DTG from sigma 2 receptor in rat liver membrane measured after 120 mins by microbeta counting analysis; type: cell membranes
T1 sequence (Q5U3Y7 whole entry): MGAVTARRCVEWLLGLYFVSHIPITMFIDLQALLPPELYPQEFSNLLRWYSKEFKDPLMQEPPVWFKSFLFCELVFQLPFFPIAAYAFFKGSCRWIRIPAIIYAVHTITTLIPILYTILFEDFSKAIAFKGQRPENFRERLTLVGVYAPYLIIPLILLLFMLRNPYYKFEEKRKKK

[4] = molecular target: Sigma non-opioid intracellular receptor 1 (Cavia porcellus, UniProt Q60492); assay: Displacement of [3H]-(+)-pentazocine from sigma1 receptor in guinea pig brain cortex membranes measured after 120 mins by scintillation counting method; type: cell membranes, Cerebral cortex, Membrane
Sequence of Sigma non-opioid intracellular receptor 1 (Q60492 whole entry): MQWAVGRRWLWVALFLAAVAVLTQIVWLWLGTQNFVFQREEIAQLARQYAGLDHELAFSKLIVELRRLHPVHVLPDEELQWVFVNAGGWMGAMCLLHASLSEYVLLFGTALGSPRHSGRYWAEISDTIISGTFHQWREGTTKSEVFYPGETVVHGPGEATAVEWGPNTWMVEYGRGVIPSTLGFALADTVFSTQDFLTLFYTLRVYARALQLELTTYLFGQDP

SMILES	inhibition [1] [%]	pKi [2]	pKi [3]	pKi [4]
O[C@@H](CN1[C@@H]2CC[C@H]1C/C(=C\c1ccc(F)cc1)C2)c1ccccc1	1.3	8.52	–	–
O[C@@H](CN1[C@@H]2CC[C@H]1C/C(=C\c1ccc(F)cc1)C2)c1ccc(F)cc1	–	9.00	7.82	9.05
O[C@@H](CN1[C@@H]2CC[C@H]1C[C@H](Cc1ccc(F)cc1)C2)c1ccc(F)cc1	–	8.23	7.82	7.60
O[C@@H](CN1[C@@H]2CC[C@H]1C[C@@H](Cc1ccc(F)cc1)C2)c1ccc(F)cc1	–	9.10	8.23	8.92
O[C@@H](CN1[C@@H]2CC[C@H]1C/C(=C/c1ccccc1)C2)c1ccc(F)cc1	–	7.54	7.33	–
O[C@@H](CN1[C@@H]2CC[C@H]1C[C@H](Cc1ccccc1)C2)c1ccccc1	–	7.68	7.85	8.15
O[C@@H](CN1[C@@H]2CC[C@H]1C[C@@H](Cc1ccccc1)C2)c1ccccc1	–	8.68	8.05	8.89
O[C@@H](CN1[C@@H]2CC[C@H]1C/C(=C/c1ccc(F)cc1)C2)c1ccccc1	-0.9	7.80	–	–
O[C@@H](CN1[C@@H]2CC[C@H]1C/C(=C/c1ccc(Cl)cc1)C2)c1ccccc1	–	7.89	7.66	7.74
O[C@H](CN1[C@@H]2CC[C@H]1C[C@H](Cc1ccccc1)C2)c1ccccc1 (mixture of isomers)	–	8.62	7.96	8.72
O[C@H](CN1[C@@H]2CC[C@H]1C/C(=C/c1ccc(Cl)cc1)C2)c1ccccc1	–	7.70	7.33	8.05
O[C@@H](CN1[C@@H]2CC[C@H]1C/C(=C\c1ccccc1)C2)c1ccc(F)cc1	–	8.85	7.96	–
O[C@@H](CN1[C@@H]2CC[C@H]1C[C@H](Cc1ccc(F)cc1)C2)c1ccccc1	5.4	7.77	7.64	8.15
O[C@H](CN1[C@@H]2CC[C@H]1C[C@@H](Cc1ccc(F)cc1)C2)c1ccccc1	2.3	7.77	7.72	8.59
O[C@H](CN1[C@@H]2CC[C@H]1C/C(=C\c1ccc(Cl)cc1)C2)c1ccccc1	–	8.36	7.52	8.72
OC(CN1CCC(Cc2ccc(F)cc2)CC1)c1ccc(Cl)cc1 (stereo not drawn) [ELIPRODIL]	–	7.89	–	–
O[C@@H](CN1[C@@H]2CC[C@H]1C/C(=C\c1ccccc1)C2)c1ccccc1	–	8.96	8.18	9.52
O[C@@H](CN1[C@@H]2CC[C@H]1C/C(=C/c1ccc(F)cc1)C2)c1ccc(F)cc1	–	8.15	7.68	7.55
O[C@H](CN1[C@@H]2CC[C@H]1C[C@@H](Cc1ccccc1)C2)c1ccccc1	–	7.82	8.00	8.35
O[C@H](CN1[C@@H]2CC[C@H]1C[C@H](Cc1ccc(F)cc1)C2)c1ccccc1	3.1	8.72	7.96	8.68
O[C@H](CN1[C@@H]2CC[C@H]1C/C(=C/c1ccc(F)cc1)C2)c1ccccc1	1.5	8.03	7.57	8.18
O[C@H](CN1[C@@H]2CC[C@H]1C/C(=C\c1ccccc1)C2)c1ccccc1	–	8.74	7.92	9.10
O[C@@H](CN1[C@@H]2CC[C@H]1C[C@@H](Cc1ccccc1)C2)c1ccc(F)cc1	–	8.77	8.22	9.15
O[C@@H](CN1[C@@H]2CC[C@H]1C/C(=C/c1ccccc1)C2)c1ccccc1	–	7.47	7.00	8.22
C[C@H]([C@H](O)c1ccc(O)cc1)N1CCC(Cc2ccccc2)CC1	–	8.24	–	–
O[C@@H](CN1[C@@H]2CC[C@H]1C[C@H](Cc1ccccc1)C2)c1ccc(F)cc1	–	8.28	8.00	8.17
O[C@@H](CN1[C@@H]2CC[C@H]1C/C(=C\c1ccc(Cl)cc1)C2)c1ccccc1	–	8.36	7.82	8.57
O[C@H](CN1[C@@H]2CC[C@H]1C/C(=C/c1ccccc1)C2)c1ccccc1	–	7.68	7.57	7.96
O[C@@H](CN1[C@@H]2CC[C@H]1C[C@@H](Cc1ccc(F)cc1)C2)c1ccccc1	8.7	9.15	7.66	9.05
O[C@H](CN1[C@@H]2CC[C@H]1C/C(=C\c1ccc(F)cc1)C2)c1ccccc1	1.7	8.54	7.96	9.35
